Values quoted from earlier work, collected in US20230270851A1, “METHODS FOR THE TREATMENT OF IDIOPATHIC ORBITAL INFLAMMATION AND RELATED CONDITIONS” (HORIZON THERAPEUTICS IRELAND DAC, priority 2020, published 2023).

Tests used:
IGF-1R = IGF-1R (Homo sapiens, UniProt P08069); conditions: A-928605: purified enzyme; INSM-18: receptor activation; cited from earlier work
[1] = target: c-erbB2/HER2/neu receptor (Homo sapiens, UniProt P04626); conditions: cited from earlier work
[2] = system: susceptible tumor cell populations; conditions: cited from earlier work
tumors = conditions: in vivo; cited from earlier work
[3] = cited from earlier work
ALK = ALK (Homo sapiens, UniProt Q9UM73); conditions: cited from earlier work
neuroblastoma = conditions: cited from earlier work
IGF-IR = IGF-IR (Homo sapiens, UniProt P08069); conditions: cited from earlier work
[4] = system: IGF-1 R-overexpressing tumor cells; conditions: cited from earlier work

Sequence of IGF-1R (P08069 31-1367): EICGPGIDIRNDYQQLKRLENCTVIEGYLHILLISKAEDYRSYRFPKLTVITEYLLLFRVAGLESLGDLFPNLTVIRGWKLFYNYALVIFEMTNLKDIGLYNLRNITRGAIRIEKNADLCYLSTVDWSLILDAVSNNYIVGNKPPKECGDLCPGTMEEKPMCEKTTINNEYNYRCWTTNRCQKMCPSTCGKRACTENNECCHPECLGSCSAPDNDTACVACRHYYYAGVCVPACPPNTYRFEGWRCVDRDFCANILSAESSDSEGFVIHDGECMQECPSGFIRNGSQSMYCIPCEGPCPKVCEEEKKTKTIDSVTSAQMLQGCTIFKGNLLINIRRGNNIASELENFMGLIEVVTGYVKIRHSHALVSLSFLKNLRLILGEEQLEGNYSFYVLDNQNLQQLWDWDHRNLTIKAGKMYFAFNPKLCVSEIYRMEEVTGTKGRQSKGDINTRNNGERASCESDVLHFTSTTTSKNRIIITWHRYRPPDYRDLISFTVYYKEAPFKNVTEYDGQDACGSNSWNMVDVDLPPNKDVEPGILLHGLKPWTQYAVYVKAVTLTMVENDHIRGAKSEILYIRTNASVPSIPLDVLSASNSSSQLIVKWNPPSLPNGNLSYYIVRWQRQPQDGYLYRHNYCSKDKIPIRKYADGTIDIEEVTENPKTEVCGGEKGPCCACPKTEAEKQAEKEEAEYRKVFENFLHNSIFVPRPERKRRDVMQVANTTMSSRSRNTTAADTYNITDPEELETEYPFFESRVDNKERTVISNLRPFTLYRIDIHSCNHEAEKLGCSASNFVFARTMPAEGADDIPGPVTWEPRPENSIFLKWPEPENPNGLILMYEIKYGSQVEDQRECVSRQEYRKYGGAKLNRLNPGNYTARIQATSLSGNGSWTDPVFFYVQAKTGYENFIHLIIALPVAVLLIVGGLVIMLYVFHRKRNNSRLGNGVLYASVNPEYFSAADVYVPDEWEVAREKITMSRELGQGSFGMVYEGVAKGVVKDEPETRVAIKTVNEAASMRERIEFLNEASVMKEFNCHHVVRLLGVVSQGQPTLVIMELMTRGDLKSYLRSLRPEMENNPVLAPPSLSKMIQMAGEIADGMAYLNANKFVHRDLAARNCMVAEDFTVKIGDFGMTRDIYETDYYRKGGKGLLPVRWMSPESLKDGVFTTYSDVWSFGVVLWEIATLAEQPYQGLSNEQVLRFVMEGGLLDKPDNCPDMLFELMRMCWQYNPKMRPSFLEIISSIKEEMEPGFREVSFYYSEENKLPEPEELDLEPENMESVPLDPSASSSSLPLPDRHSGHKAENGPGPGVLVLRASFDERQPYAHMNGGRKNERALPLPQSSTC
Sequence of IGF-IR (P08069 31-1367): as above
Sequence of c-erbB2/HER2/neu receptor (P04626 23-1255): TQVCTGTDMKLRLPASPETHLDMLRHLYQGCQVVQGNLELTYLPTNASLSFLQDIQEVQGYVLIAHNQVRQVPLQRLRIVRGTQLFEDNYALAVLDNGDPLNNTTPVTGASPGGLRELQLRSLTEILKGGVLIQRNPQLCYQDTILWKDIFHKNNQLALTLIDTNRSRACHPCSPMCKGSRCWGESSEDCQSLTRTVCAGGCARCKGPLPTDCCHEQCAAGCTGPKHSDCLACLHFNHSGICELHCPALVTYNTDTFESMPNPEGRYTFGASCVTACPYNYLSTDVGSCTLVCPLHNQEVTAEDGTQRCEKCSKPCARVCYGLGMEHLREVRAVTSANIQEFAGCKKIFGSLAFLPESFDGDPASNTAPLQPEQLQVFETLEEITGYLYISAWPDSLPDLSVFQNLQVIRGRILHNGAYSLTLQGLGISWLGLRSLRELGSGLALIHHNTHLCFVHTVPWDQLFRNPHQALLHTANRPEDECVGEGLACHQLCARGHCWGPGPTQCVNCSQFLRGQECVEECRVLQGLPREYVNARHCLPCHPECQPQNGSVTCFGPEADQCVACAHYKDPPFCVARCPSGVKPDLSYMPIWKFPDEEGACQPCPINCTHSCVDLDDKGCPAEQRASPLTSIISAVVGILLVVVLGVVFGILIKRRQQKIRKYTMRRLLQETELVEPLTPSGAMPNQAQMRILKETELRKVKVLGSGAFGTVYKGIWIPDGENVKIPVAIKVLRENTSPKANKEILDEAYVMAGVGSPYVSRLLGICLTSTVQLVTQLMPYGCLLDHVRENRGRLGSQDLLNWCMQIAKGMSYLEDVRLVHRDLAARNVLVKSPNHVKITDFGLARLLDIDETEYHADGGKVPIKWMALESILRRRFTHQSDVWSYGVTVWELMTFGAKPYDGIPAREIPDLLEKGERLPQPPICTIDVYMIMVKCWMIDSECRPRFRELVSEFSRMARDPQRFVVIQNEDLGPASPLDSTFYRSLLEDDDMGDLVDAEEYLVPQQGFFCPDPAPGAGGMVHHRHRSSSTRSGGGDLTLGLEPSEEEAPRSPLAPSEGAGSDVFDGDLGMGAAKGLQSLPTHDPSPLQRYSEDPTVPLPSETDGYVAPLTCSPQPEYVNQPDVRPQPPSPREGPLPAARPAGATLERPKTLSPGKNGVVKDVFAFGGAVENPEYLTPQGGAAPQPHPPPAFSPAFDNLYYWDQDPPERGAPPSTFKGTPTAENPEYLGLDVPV
Sequence of ALK (Q9UM73 19-1620, species assumed): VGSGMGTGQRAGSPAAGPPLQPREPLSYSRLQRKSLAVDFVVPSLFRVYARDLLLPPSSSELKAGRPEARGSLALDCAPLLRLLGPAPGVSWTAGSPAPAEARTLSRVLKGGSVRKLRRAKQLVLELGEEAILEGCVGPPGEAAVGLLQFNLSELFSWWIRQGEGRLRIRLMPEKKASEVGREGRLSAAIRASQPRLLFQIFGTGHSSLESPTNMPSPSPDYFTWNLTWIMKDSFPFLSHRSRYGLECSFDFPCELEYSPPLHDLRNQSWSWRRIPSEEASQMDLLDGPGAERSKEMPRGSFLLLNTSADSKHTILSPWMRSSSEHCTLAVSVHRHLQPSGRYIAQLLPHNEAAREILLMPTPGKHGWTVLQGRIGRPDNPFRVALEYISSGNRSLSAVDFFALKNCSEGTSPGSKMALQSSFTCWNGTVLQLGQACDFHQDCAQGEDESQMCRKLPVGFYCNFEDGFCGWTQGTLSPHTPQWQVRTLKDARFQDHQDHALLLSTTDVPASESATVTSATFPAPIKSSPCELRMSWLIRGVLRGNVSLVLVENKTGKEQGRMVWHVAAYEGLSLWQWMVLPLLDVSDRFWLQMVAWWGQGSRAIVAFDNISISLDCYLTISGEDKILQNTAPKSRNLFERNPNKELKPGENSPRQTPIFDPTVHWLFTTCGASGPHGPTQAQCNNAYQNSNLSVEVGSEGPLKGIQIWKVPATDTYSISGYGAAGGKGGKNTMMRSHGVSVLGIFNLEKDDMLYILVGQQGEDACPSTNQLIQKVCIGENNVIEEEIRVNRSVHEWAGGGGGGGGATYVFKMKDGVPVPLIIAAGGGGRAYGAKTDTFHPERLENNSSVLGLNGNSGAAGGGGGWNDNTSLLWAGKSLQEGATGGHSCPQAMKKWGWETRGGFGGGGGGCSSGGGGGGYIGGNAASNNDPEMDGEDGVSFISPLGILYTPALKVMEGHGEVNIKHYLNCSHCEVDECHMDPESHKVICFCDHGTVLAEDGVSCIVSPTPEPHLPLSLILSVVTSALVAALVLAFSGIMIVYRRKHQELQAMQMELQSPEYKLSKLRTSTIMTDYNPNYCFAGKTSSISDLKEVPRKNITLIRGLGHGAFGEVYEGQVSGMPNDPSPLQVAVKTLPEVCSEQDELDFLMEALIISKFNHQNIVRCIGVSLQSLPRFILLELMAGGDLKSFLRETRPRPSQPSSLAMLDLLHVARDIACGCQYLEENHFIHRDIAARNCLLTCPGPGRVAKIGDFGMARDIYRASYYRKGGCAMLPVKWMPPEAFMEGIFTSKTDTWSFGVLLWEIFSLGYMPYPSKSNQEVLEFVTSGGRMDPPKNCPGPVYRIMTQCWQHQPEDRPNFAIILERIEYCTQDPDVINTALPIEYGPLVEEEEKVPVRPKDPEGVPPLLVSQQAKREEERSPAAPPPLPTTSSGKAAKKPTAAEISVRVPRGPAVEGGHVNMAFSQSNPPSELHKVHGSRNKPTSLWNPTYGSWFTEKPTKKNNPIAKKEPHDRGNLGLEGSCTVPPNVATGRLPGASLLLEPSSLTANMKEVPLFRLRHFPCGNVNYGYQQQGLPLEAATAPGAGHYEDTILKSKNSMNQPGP

## C[C@H](Cc1ccc(O)c(O)c1)[C@@H](C)Cc1ccc(O)c(O)c1 [INSM-18, nordihydroguaiaretic acid]
IGF-1R
  inhibition of IGF-1R: directly inhibits activation
[1]
  inhibition of activation of the c-erbB2/HER2/neu receptor: directly inhibits activation
[2]
  proliferation of susceptible tumor cell populations: decreased proliferation

## COCCN1CCN(CCn2ccc(Nc3ncc4c(n3)[C@@H](C)Cc3nn(C)c(-c5ccccc5)c3-4)n2)CC1 [BI885578]
tumors
  apoptosis in tumors: induction of apoptosis
  cell proliferation in tumors: inhibition of cell proliferation
[3]
  in vivo half-life: short
[3]; in vivo
  intestinal absorption: rapid
  metabolic clearance: rapid

## COc1cc(N2CCC(N)CC2)ccc1Nc1ncc(Cl)c(-c2c[nH]c3ccccc23)n1 [AZD3463]
IGF-1R
  inhibition of IGF-1R: potent
ALK
  inhibition of ALK: potent
neuroblastoma; neuroblastoma
  apoptosis: inducing apoptosis
neuroblastoma; overcoming crizotinib resistance
  neuroblastoma growth: inhibition of neuroblastoma growth

## Nc1ncnc2c1c(-c1ccc3[nH]c(Cc4ccccc4Cl)nc3c1)nn2[C@H]1CC[C@H](N2CCOCC2)CC1 [Example A-928605]
IGF-1R
  inhibition of IGF-1R: potent inhibitor
IGF-IR
  inhibition of intracellular IGF-IR phosphorylation: potent inhibitor

## CCOC(=O)N1CCC(Nc2cc(Cl)cc3c(S(=O)(=O)N4CCO[C@H](COc5ccccc5)C4)c(C(N)=O)[nH]c23)CC1 [PL-225B]
IGF-1R
  inhibition of IGF-1R: selectively inhibits
[4]
  tumor cell apoptosis: induction of tumor cell apoptosis
  tumor cell proliferation: inhibition of tumor cell proliferation
